Experimental data from patent publication US8815947B2, “Methods of treating metabolic disorders” (Case Western Reserve University, priority 2007, dated 2014).
Where two headings read alike, the source gives them in different places.

Key:
[1] = tested on: PPAR β/δ target genes PDK1 and FIAF; assay: Real-time PCR of PDK1 and FIAF in cultured adipocytes; assay type: cell-based
Excerpt: We then used real-time PCR to examine the effects of these ligands on the expression of PDK1 and another known PPAR β/δ target gene, FIAF.

[2] = tested on: PPARβ/δ target genes FIAF, ADRP, and PDK-1; assay: Q-PCR of endogenous PPARβ/δ target genes in HaCaT cells; assay type: cell-based, human; settings: for expression of mRNA of PPARβ/δ target genes FIAF, ADRP and PDK-1: normalized to 18s mRNA
Method: (§1) FIG. 1C illustrates graphs showing the levels of mRNA of the PPARβ/δ target genes FIAF, ADRP, and PDK-1 expressed from HaCaT cells treated with the denoted ligands (0.1 μM, 4 hr). Levels of mRNA of the PPARβ/δ target genes FIAF, ADRP, and PDK-1 were analyzed by Q-PCR and normalized to 18s mRNA. FIG. 1D illustrate a graph showing the level of ADRP mRNA in HaCaT cells that were transfected with control siRNA or PPARβ/δ siRNA (24 hr.), and then treated with the denoted ligands (0.1 μM, 4 hr). ADRP mRNA was analyzed by QPCR and normalized to 18s mRNA. […] FIG. 1F illustrates a graph of the total activation of HaCaT cells transfected with a RARE-driven luciferase reporter. Cells were treated with RA at the denoted concentrations (15 hr), lysed, and luciferase activity measured and corrected for β-galactosidase activity. Data were normalized to the basal activity. […] FIG. 1G illustrates a graph of the level of expression of mRNA of the RAR target gene Cyp26α in cells that were treated with the denoted ligands. Expression of mRNA of the RAR target gene Cyp26α was analyzed by Q-PCR and normalized to 18s mRNA.
Quantitative real-time PCR (Q-PCR). RNA was extracted and cDNA generated using Gene Amp RNA PCR (Applied Biosystems, Foster City, Calif.). Q-PCR analyses for PDK-1 were conducted using TaqMan chemistry and Assays on Demand probes (Applied Biosystems, PDK1-Hs00176884_ml, ADRP-Hs00765634_ml, FIAF-Hs00211522_ml), Cyp26a-Hs01075671_gl, BTG2-Hs00198887_ml, cyclin D1 0 Hs00277039-ml. […] Analyses were carried out using the relative standard curve method (Applied Biosystems Technical Bulletin no. 2).

GFP-FABP5 = target: T1, GFP-FABP5 (Homo sapiens, UniProt Q01469); assay: Confocal fluorescence microscopy of GFP-FABP5 in live COS-7 cells; assay type: cell-based; settings: ligand 1 μM, 30 min
T1 construct: expressed in transfected cells; host or cells: COS-7
T1 sequence (Q01469 whole entry): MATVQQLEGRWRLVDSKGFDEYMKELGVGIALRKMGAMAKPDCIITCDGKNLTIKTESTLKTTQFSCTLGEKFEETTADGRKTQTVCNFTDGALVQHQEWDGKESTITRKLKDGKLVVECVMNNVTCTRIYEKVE
Method: Images were acquired from live cells before and after a 30 min. treatment with RA (1 μM). […] Forty cells of each treatment group were analyzed (mean±SEM).
Confocal fluorescence microscopy. COS-7 cells were plated in 35 mm glass bottom microwell dishes (Mattek) in DMEM containing 5% charcoal-treated FBS (75,000 cells per plate), grown for 12 hr. and transfected using Fugene (Roche) with an expression vector harboring GFP-tagged FABP5 (EGFP, 250 ng DNA per plate). Following a 48 hr incubation, medium was replaced with serum-free DMEM, and live cells were imaged using a Leica TCS SP2 confocal microscope equipped with a 40× oil immersion lens. After imaging, cells were treated with ligands (1 μM), incubated at 37° C. for 30 min and imaged again. An average of 40 cells were analyzed using ImageJ (National Institute of Health).

FABP5 [3] = target: T2, FABP5 (Homo sapiens, UniProt Q01469); assay: Fluorescence-based binding assay (ANS titration and competition); set-up: GST; made in house; host or cells: E. coli BL21
Target sequence in this assay (Q01469 whole entry, species assumed): as the sequence (Q01469 whole entry) above
Method: Binding assays were carried out by fluorescence titrations using a Fluorolog 2 DMIB spectrofluorometer (SPEX Instruments, Edison, N.J.). […] In the first step, Kd for the association of the protein with the fluorescent fatty acid probe ANS was measured. Protein (1 μM) was titrated with ANS from a concentrated solution in ethanol. Ligand binding was monitored by following the increase in the fluorescence of the ligand upon binding to the protein (λex-370 nm; λem-475 nm). Titration curves were analyzed (Norris and Li, 1998) to yield the number of binding sites and Kd. Kds for binding of non-fluorescent ligands were then measured by monitoring their ability to compete with fluorescent probes for binding. […] Kds were extracted from the EC50 of the competition curve and the measured Kd for the probe. Analyses were carried out using Origin 7.5 software (MicroCal Software Inc., Northampton, Mass.).

RAR = assay: Transactivation assay, RARE-driven luciferase reporter in HaCaT cells; assay type: cell-based, human; settings: RA 15 hr
Method: as §1
Transactivation assays. Cells were cultured in 24-well plates and co-transfected with (PPRE)3-luciferase reporter vector (100 ng), a vector harboring the appropriate iLBP (in pCDNA 3.1, 200 ng), and pCH110, a β-galactosidase expression plasmid (50 ng). […]

Akt = assay: Immunoblots of phospho-Akt in HaCaT cells; assay type: cell-based, human; settings: ligand 0.1 μM, 12 hr, immunoblot
Method: (§2) FIG. 1B illustrates a graph showing the results of the total activation of cells cotransfected with either control siRNA or siRNA for PPARβ/δ, and then treated with RA at the denoted concentrations. FIG. 1C illustrates graphs showing the levels of mRNA of the PPARβ/δ target genes FIAF, ADRP, and PDK-1 expressed from HaCaT cells treated with the denoted ligands (0.1 μM, 4 hr). Levels of mRNA of the PPARβ/δ target genes FIAF, ADRP, and PDK-1 were analyzed by Q-PCR and normalized to 18s mRNA. FIG. 1D illustrate a graph showing the level of ADRP mRNA in HaCaT cells that were transfected with control siRNA or PPARβ/δ siRNA (24 hr.), and then treated with the denoted ligands (0.1 μM, 4 hr). ADRP mRNA was analyzed by QPCR and normalized to 18s mRNA. Data are mean±SEM, n=3. FIG. 1E illustrates immunoblots of […], total Akt, and β-tubulin in cells treated with denoted ligands (0.1 μM, 12 hr). Data from a representative experiment, which was repeated 4 times with similar results are shown. FIG. 1F illustrates a graph of the total activation of HaCaT cells transfected with a RARE-driven luciferase reporter. Cells were treated with RA at the denoted concentrations (15 hr), lysed, and luciferase activity measured and corrected for β-galactosidase activity. […] Expression of mRNA of the RAR target gene Cyp26α was analyzed by Q-PCR and normalized to 18s mRNA. […]

PPARβ/δ [4] = target: T3, PPARβ/δ (Homo sapiens, UniProt Q03181); assay: Transactivation assay, PPRE-driven luciferase reporter in HaCaT cells; assay type: cell-based; set-up: endogenous in cells; host or cells: HaCaT
T3 sequence (Q03181 1-441): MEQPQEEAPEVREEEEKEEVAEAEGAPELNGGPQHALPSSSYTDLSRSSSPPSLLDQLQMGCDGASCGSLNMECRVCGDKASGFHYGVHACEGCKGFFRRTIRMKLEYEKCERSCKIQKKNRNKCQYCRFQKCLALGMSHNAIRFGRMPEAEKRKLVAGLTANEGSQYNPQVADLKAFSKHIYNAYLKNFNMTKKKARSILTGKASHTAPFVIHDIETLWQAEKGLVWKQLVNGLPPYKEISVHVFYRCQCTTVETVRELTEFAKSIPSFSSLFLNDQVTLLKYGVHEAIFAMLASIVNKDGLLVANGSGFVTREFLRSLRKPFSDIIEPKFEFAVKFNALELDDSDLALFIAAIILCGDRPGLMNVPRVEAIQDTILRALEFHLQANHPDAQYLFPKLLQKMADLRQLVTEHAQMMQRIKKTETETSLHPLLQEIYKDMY
Method: The ability of RA to activate PPARβ/δ in the human keratinocyte cell line HaCaT was examined. Transactivation assays were conducted in HaCaT cells transfected with a PPRE-driven luciferase reporter. Cells were treated with the ligands denoted in FIG. 1 for 15 hours, lysed and luciferase activity was measured and corrected for β-galactosidase activity. Data was normalized to the basal activity. Data are mean±SEM, n=3
(§3) Transactivation assays. Cells were cultured in 24-well plates and co-transfected with (PPRE)3-luciferase reporter vector (100 ng), a vector harboring the appropriate iLBP (in pCDNA 3.1, 200 ng), and pCH110, a β-galactosidase expression plasmid (50 ng). In some experiments, an expression vector encoding RAR or PPARβ/δ (in pSG5, 50 ng) was cotransfected. Transfections were carried out using Fugene (Roche Diagnostics Corporation) according to the protocol of the manufacturer. Twenty-four hours following transfection, medium was replaced by DMEM, and ligands were added (RA—in ethanol, other ligands—in dimethylsulfoxide). Following 24 hr of treatment, cells were lysed and lysates assayed for luciferase activity (Luciferase assay system, Promega) which was corrected for β-galactosidase activity. Experiments were carried out in triplicates.

[5] = tested on: obese mice fed a high fat/high sucrose diet; assay: Diet-induced mouse model of obesity, systemic RA treatment; assay type: in vivo
Method: We have now completed a pilot experiment to examine the notion that all-trans-retinoic acid (RA) suppresses obesity and insulin resistance. Experiments were carried out using both cultured adipocytes and a diet-induced mouse model of obesity.
For the in vivo experiments, C57BU6J mice were fed a high fat/high sucrose diet for 16 weeks, when they weighed 1.5 fold more than a cohort fed a standard diet. […] Obese mice were separated into two groups. Both groups were continually maintained on the high fat/high sucrose diet, and one of them was systemically treated with RA.
An important measure of insulin sensitivity is the ability of an animal to clear glucose from plasma. This parameter is assessed by glucose tolerance tests (GTT) in which glucose is administered to the mice and the kinetics of its clearance from blood measured.

FABP5 [6] = target: T2, FABP5; assay: Subcellular fractionation and immunoblot of endogenous FABP5 in HaCaT cells; assay type: cell-based; set-up: To monitor the effects of ligands on the localization of endogenous FABP5 in HaCaT cells; endogenous in cells; host or cells: HaCaT; settings: ligand 1 μM, 30 min, subcellular fractionation
Target sequence in this assay (Q01469 whole entry): as the sequence (Q01469 whole entry) above
Method: FIG. 2C illustrates an immunoblot of HaCaT cells treated with denoted RA or with stearic acid (1 μM, 30 min.). Nuclei were separated from cytosol by subcellular fractionation (Calbiochem ProtoExtract Subcellular Proteome Extraction kit) and analyzed for the presence of FABP5 by immunoblots.
The subcellular localization of FABP5 was then examined. […] To monitor the effects of ligands on the localization of endogenous FABP5 in HaCaT cells, cells were treated with vehicle, RA, or stearate, subjected to subcellular fractionation, and the presence of FABP5 in cytosol and in nuclei examined by immunoblots (FIG. 2C).

RAR target gene Cyp26α = assay: Q-PCR of RAR target gene Cyp26α in HaCaT cells; assay type: cell-based, human; settings: normalized to 18s mRNA
Method: as §2, with “FIG. 1F illustrates a graph of the total activation of HaCaT cells transfected with a RARE-driven luciferase reporter.” left out
Quantitative real-time PCR (Q-PCR). […]

PPARβ/δ [7] = target: T3, PPARβ/δ; assay: Transactivation assay in COS-7 cells, PPRE reporter with PPARβ/δ expression vector; assay type: cell-based; set-up: expressed in transfected cells; host or cells: COS-7; settings: COS-7 cells cotransfected with PPARβ/δ expression vector
Method: as §3

[8] = obese mice on high fat diet, RA treated

## C/C(=C\c1ccc(C(=O)O)cc1)c1ccc2c(c1)C(C)(C)CCC2(C)C [TTNPB, 4-[(E)-2-(5,6,7,8-Tetrahydro-5,5,8,8-tetramethyl-2-naphthalenyl)-1-propenyl]benzoic acid]
[1]
  expression of FIAF and PDK1 mRNA: down-regulation of the two genes
[2]; ligand 0.1 μM, 4 hr
  expression of mRNA of PPARβ/δ target genes FIAF, ADRP and PDK-1: little effect

## CCCCCCCCCCCCCCCCCC(=O)O [stearic acid]
GFP-FABP5
  subcellular distribution of GFP-FABP5 (nuclear/cytoplasmic): did not affect the subcellular distribution

## O=S(=O)(O)c1cccc2cccc(Nc3ccccc3)c12 [ANS, Anilinonaphtalene-8-sulphonic acid]
FABP5 [3]; mean±SD, n=3, protein 1 μM titrated with probe, read-out: Kd for FABP5, direct fluorescence titration
  Kd: 57 ± 7.3 nM

## CC1=C(/C=C/C(C)=C\C=C\C(C)=C\C(=O)O)C(C)(C)CCC1 [9-cis-RA]
[2]; ligand 0.1 μM, 4 hr
  expression of mRNA of PPARβ/δ target genes FIAF, ADRP and PDK-1: modest response

## CC1=C(/C=C/C(C)=C/C=C/C(C)=C/C(=O)O)C(C)(C)CCC1 [RA, all-trans-retinoic acid]
RAR
  expression of RARE-driven luciferase reporter: upregulated the expression of a reporter gene construct
Akt
  phosphorylation level of Akt: significantly increased
PPARβ/δ [4]; PPARβ/δ expression decreased by about 80% by siRNA
  RA-induced PPRE reporter response after PPARβ/δ siRNA: markedly suppressed
PPARβ/δ [4]; ligand 15 hours, GW0742/TTNPB 1 μM, RA at several concentrations
  transcription of the PPRE-driven luciferase reporter: enhanced the expression of the PPRE-driven reporter and did so in a dose responsive manner
[1]
  expression of FIAF and PDK1 mRNA: enhanced the expression of these genes
FABP5 [3]; mean±SD, n=3, extracted from EC50 of competition curve and Kd of probe, read-out: Kd for FABP5, fluorescence competition titration against ANS
  Kd: 34.8 ± 6.6 nM
[5]; livers of mice fed a high fat diet and treated with RA
  hepatic lipid accumulation (steatosis): all but devoid of lipid stores
[5]; [8]
  weight of fat tissue (white adipose tissue): decreased by over two fold
  weights of liver, skeletal muscle or brown adipose tissue (BAT): without affecting
[5]; obese mice on high fat diet, RA treated vs non-treated cohort
  food consumption: higher than that of the non-treated cohort
[5]; obese mice on high fat/high sucrose diet, five week RA treatment, 0.16 mg/day systemic
  loss of body weight: ~15%
GFP-FABP5
  subcellular distribution of GFP-FABP5 (nuclear/cytoplasmic): distinct shift of the protein into the nucleus
[2]; 80% decrease in PPARβ/δ expression, ligand 0.1 μM, 4 hr
  induction of ADRP mRNA after PPARβ/δ siRNA: significantly hampered
[2]; about 80% decrease in FABP5 protein
  induction of ADRP mRNA after FABP5 siRNA: markedly attenuated
[2]; ligand 0.1 μM, 4 hr
  expression of mRNA of PPARβ/δ target genes FIAF, ADRP and PDK-1: upregulated the expression of mRNA for all three
FABP5 [6]
  nuclear localization of endogenous FABP5: accumulates in the nucleus
RAR target gene Cyp26α
  expression of mRNA for CYP26α: efficiently upregulated
PPARβ/δ [7]
  expression of PPRE-driven reporter: enhanced the expression of the PPRE-driven reporter in a dose-responsive manner

## Cc1cc(SCc2sc(-c3ccc(C(F)(F)F)c(F)c3)nc2C)ccc1OCC(=O)O [GW0742]
Akt
  phosphorylation level of Akt: significantly increased
FABP5 [3]
  Kd: 42.3 ± 4.5 nM
GFP-FABP5
  subcellular distribution of GFP-FABP5 (nuclear/cytoplasmic): distinct shift of the protein into the nucleus
